The assay has as its system Vaccinia virus. Description: Concentration required to reduce cytopathogenicity of vaccinia virus by 50% in primary rabbit kidney (PRK) cells. In kind it is functional, Orthopoxvirus vaccinia. A general note: Damage to the host cells serves as the signal in cytopathic effect assays.

Molecules are shown by their SMILES. In brackets after ≈: the same amount, converted by molar mass.

The compound `CC(=O)OCCOCn1cnc2c(Cl)ncnc21` registered an ID50 of 20 µg/mL (≈ 73.9 µM).
`Nc1ccn(COCCO)c(=O)n1` had an ID50 above 400 µg/mL.
`CC(=O)OCCOCn1cnc2c(Cl)nc(N)nc21` showed an ID50 of 70 µg/mL (≈ 245 µM).
The figure for `Nc1nc(Cl)c2ncn(COCCO)c2n1` is 70 µg/mL (≈ 287 µM).
The figure for `O=c1[nH]c(=O)n([C@H]2C[C@H](O)[C@@H](CO)O2)cc1/C=C/Br` [BRIVUDINE] is 7 µg/mL (≈ 21 µM); for `CNc1nc2c(=O)[nH]c(N)nc2n1COCCO` it is above 400 µg/mL; for `Nc1nc2c(nc(Br)n2COCCO)c(=O)[nH]1` it is above 400 µg/mL.
The value for `Nc1nc2c(nc(O)n2COCCO)c(=O)[nH]1` was above 400 µg/mL; that for `Nc1ncnc2c1ncn2COCCO` was 20 µg/mL (≈ 95.6 µM); that for `Nc1nc2c(nc(N)n2COCCO)c(=O)[nH]1` was above 100 µg/mL.
`Cc1nc2c(O)nc(N)nc2n1COCCO` had an ID50 above 400 µg/mL.
For the compound `Nc1nc(O)c2nc(N3CCCCC3)n(COCCO)c2n1`, the ID50 was above 400 µg/mL.
The value for `Nc1nc2c(ncn2COCCO)c(=O)[nH]1` [ACYCLOVIR] was 50 µg/mL (≈ 222 µM); that for `Nc1nc2c(nc(I)n2COCCO)c(=O)[nH]1` was above 400 µg/mL; that for `O=c1[nH]c(=O)n([C@H]2C[C@H](O)[C@@H](CO)O2)cc1I` [IDOXURIDINE] was 0.2 µg/mL (≈ 0.565 µM).
With `CN(C)c1nc2c(=O)[nH]c(N)nc2n1COCCO`, the ID50 result was “>=300 ug ml-1”.

Values taken from ChEMBL document CHEMBL1122521, “Nucleic acid related compounds. 47. Synthesis and biological activities of pyrimidine and purine "acyclic" nucleoside analogues” (J Med Chem, 1984).
